Reference: patent publication US20130273027A1, “MUTANT PROTEASES AND METHODS OF USE THEREOF” (Progenra, Inc., priority 2012, published 2013)

How the values were obtained:
USP14 mutant BL1-USP21 = molecular target: T1, USP14 mutant BL1-USP21 (Homo sapiens, UniProt P54578, DEL335-341/INS333SRGSI); assay: Screening assay with USP14 mutant BL1-USP21, ubiquitin-rhodamine 110 cleavage; format: biochemical; settings: 63.75 nM mutant USP14 preincubated 30 minutes; Ub-Rh110; normalized to DMSO (0%) and 10 mM NEM (100%); FIG. 7
T1 construct: a full-length cDNA clone encoding full-length USP14 isoform a; made in house; host or cells: E. coli Rosetta 2 (DE3) pLysS
Description: Test compounds were diluted in DMSO to the appropriate concentration before dispensing 2 μl of each compound into a black walled 96 well plate. The compounds were preincubated with 80 μl of reaction buffer containing 63.75 nM mutant USP14 for 30 minutes before adding 20 μl of 510 nM ubiquitin-rhodamine 110 in reaction buffer. The plates were incubated at room temperature before reading on a fluorimeter equipped with excitation and emission filters of […] respectively and a 510 nm dichroic mirror within the linear range of the assay. […] FIG. 7 provides a graph of the results.

USP14 mutant BL2-DNHG = molecular target: T2, USP14 mutant BL2-DNHG (Homo sapiens, UniProt P54578, DEL429-429/S430D/S431N/S432H/S433G); assay: Screening assay with USP14 mutant BL2-DNHG, ubiquitin-rhodamine 110 cleavage; format: biochemical; settings: 1.275 μM mutant USP14 preincubated 30 minutes; Ub-Rh110; normalized to DMSO (0%) and 10 mM NEM (100%); FIG. 8
T2 construct: a full-length cDNA clone encoding full-length USP14 isoform a; 6xHis (N); yeast SUMO (S. cerevisiae Smt3) (N); made in house; host or cells: E. coli (Rosetta 2 (DE3) pLysS stated for the pE-SUMOpro-USP14 construct)
Description: Another screening assay was performed with the USP14 mutant BL2-DNHG. Test compounds were diluted in DMSO to the appropriate concentration before dispensing 2 μl of each compound into a black walled 96 well plate. The compounds were preincubated with 80 μl of reaction buffer containing 1.275 μM mutant USP14 for 30 minutes before adding 20 μl of 510 nM ubiquitin-rhodamine 110 in reaction buffer. The plates were incubated at room temperature before reading on a fluorimeter equipped with excitation and emission filters of 485 and 528 nm respectively and a 510 nm dichroic mirror within the linear range of the assay.

T2 sequence (P54578 with tags, fused parts or gaps DEL429-429/S430D/S431N/S432H/S433G): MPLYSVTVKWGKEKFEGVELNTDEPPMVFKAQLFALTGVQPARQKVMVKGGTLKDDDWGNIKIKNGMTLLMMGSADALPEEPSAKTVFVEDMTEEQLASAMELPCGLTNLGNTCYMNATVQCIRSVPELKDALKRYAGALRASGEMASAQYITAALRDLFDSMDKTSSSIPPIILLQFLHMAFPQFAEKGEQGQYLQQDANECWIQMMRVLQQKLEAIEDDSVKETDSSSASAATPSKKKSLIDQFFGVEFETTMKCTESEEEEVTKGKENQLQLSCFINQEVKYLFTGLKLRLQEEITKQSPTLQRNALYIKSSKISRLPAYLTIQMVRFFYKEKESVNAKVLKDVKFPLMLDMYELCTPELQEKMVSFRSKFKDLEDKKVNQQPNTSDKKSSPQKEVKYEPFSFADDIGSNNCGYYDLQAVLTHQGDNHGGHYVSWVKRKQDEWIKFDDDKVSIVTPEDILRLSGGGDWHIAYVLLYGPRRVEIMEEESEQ
T1 sequence (P54578 with tags, fused parts or gaps INS333SRGSI/DEL335-341): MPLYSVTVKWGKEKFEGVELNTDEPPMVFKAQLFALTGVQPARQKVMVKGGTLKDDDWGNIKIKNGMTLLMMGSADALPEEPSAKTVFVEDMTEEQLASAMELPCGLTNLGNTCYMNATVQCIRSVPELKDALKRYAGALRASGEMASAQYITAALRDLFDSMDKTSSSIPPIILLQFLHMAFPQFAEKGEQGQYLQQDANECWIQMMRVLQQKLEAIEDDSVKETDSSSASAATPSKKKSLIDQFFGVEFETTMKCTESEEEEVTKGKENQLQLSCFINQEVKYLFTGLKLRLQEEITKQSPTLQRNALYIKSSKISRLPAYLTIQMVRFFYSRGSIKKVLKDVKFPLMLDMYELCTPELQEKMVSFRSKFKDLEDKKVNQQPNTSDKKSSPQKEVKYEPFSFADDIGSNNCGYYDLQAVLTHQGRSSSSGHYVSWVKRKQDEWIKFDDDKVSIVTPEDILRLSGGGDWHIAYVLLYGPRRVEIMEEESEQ

CC(=O)c1cc([N+](=O)[O-])c(Sc2ccc(F)cc2F)s1 [P22077]
inhibition of USP14 mutant (BL1-USP21) (USP14 mutant BL1-USP21): do not inhibit
inhibition of USP14 mutant (BL2-DNHG) (USP14 mutant BL2-DNHG): do not inhibit

N#CSc1cc(SC#N)c(N)nc1N [PR-619]
inhibition of USP14 mutant (BL1-USP21) (USP14 mutant BL1-USP21): inhibit
inhibition of USP14 mutant (BL2-DNHG) (USP14 mutant BL2-DNHG): inhibit
